According to PMC7074965, “Discovery of Two Brominated Oxindole Alkaloids as Staphylococcal DNA Gyrase and Pyruvate Kinase Inhibitors via Inverse Virtual Screening” (Microorganisms, 2020):

Target: T1, Topo IV from S. aureus (ParE) (Staphylococcus aureus, UniProt P0C1S7)
T1 construct: purchased Inspiralis
Test: Topoisomerase IV inhibitory assay (Inspiralis kit)
Format: biochemical
Conditions: staphylococcal Topo IV (ParE), mean of three experiments ± S.D.
Protocol: DNA gyrase (type II topoisomerase) and topoisomerase IV (Topo IV; ParE) introduce negative supercoils into DNA, utilizing ATP hydrolysis as a source of energy. They are considered essential bacterial regulatory enzymes that are absent in eukaryotes. Gyrase subunit B (Gyr-B) and Topo IV inhibitory activities were determined using the Inspiralis assay kit (Inspiralis®, UK) on streptavidin-coated 96-well microtiter plates (Thermo Scientific, Germany) according to the manufacturer’s protocols. The assay measures the ability of the tested compounds to inhibit the ATPase activity of both Gyr-B and ParE subunits. Briefly, the plates were hydrated with buffer (20 mM Tris-HCl with pH 7.6, 0.01% w/v BSA, 0.05% v/v Tween 20, 137 mM NaCl) and the biotinylated oligonucleotide was then immobilized. […] The produced fluorescence was measured using a microplate reader (BioTek Synergy, excitation: 485 nm, emission: 535 nm, Germany). […] The PK inhibitory activity of the tested compounds was determined according to the previously reported method. […] The PK activity was measured in a continuous assay coupled to lactate dehydrogenase (LDH) in which the change in absorbance at 340 nm owing to the oxidation of NADH was measured by the microplate reader. […] IC50 values in both assays were determined using seven concentrations of tested compounds. […]

T1 sequence (P0C1S7 whole entry): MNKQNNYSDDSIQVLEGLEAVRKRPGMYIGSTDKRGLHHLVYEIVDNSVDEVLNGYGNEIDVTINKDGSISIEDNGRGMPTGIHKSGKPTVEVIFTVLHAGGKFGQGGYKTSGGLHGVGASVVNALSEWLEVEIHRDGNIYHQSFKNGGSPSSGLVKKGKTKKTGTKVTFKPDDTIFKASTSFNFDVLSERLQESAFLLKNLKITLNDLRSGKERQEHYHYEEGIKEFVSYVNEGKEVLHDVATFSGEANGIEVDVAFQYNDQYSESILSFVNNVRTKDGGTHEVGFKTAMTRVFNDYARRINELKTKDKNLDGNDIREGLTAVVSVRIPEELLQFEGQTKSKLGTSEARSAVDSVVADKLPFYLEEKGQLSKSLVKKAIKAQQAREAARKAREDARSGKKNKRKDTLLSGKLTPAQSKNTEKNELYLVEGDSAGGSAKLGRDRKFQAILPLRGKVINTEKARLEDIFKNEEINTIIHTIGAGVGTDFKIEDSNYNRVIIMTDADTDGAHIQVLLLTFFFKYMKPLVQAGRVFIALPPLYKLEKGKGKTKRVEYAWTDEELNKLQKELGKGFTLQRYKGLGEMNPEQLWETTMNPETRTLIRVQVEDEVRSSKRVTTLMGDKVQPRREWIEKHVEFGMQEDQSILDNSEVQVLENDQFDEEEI
T1 sequence (P0C1U9 whole entry partner): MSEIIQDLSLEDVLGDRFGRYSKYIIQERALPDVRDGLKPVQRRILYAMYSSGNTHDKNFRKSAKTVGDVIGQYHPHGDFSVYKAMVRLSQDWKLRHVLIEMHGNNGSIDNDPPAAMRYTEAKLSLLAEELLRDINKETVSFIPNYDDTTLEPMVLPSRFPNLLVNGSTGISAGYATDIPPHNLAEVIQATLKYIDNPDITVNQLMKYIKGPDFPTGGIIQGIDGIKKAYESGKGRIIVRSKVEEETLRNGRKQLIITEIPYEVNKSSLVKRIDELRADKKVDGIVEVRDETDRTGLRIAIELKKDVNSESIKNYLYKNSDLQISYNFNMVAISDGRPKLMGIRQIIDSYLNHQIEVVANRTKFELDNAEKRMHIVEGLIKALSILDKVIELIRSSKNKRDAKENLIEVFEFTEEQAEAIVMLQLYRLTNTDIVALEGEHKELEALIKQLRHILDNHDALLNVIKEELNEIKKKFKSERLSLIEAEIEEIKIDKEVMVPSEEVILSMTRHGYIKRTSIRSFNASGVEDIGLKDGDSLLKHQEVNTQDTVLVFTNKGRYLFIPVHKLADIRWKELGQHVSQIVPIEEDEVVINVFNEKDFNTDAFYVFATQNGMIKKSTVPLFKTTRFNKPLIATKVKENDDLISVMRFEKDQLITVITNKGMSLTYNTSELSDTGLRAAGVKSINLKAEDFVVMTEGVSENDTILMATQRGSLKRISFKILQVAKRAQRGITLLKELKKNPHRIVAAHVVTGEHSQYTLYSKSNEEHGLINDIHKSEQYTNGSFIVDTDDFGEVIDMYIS

## CO[C@@H]1[C@@H](OC(N)=O)[C@@H](O)[C@H](Oc2ccc3c(O)c(NC(=O)c4ccc(O)c(CC=C(C)C)c4)c(=O)oc3c2C)OC1(C)C [Novobiocin]
  IC50: 0.22 ± 0.01 µM
